Measured values as given in patent US20260356819A1, “OXOISOINDOLINYL-SUBSTITUTED […] DERIVATIVE AND USE THEREOF” (GLUETACS THERAPEUTICS (SHANGHAI) CO., LTD., priority 2023, published 2026).

Columns and labels:
MM.1S cells = test: Inhibition of proliferation of multiple myeloma cells MM.1S (cell viability assay, 96 h); assay type: cell-based, human; conditions: read-out: inhibitory activity (IC50) against tumor cells proliferation, MM.1S
Protocol: The tumor cells used herein were cultured in a cell culture medium listed in table 2 at 37 °C in an incubator with 5% CO2. Prior to experimentation, all cell lines used were correctly identified by STR profiling, and tested negative for Mycoplasma contamination using a Mycoplasma detection kit through routine screenings.
The IC50 values of the compounds of the present disclosure (including the compounds in Table 1, and Examples 1-498) were determined using the CellTiter-Meiluncell Luminescent Cell Viability Assay Kit from Dalian Meilun Biotech Co., Ltd. The detailed procedure is as follows: Tumor cells were seeded in 96-well cell culture plates at the densities specified in Table 3. On the following day, the test compounds of the present disclosure were subjected to serial dilution. […] Subsequently, 0.5 μL of the test compound dilution was transferred into the 96-well plate containing the cells, with each well containing 100 μL of cell culture medium. […] Into the 96-well plate, the diluted test compounds and corresponding detection reagents were added, resulting in final test compound concentrations of 500 nM and 10 nM, respectively. The experimental procedure is described below using the diluted 2 μM test compound as an example.
0.5 μL of the aforementioned diluted compound of the present disclosure (including the compounds in Table 1, and Examples 1-498) was added to the seeded cells in 100 μL of medium, yielding a final test compound concentration of 10 nM. After the cells were treated with the compounds of the present disclosure for a specified period, the cell viability assay reagent was added to the culture medium according to the kit's instructions to determine cell viability. […] All controls were treated using the same procedure as the compounds of the present disclosure. The growth inhibition curves for the compounds of the present disclosure were plotted using Prism GraphPad software, and the IC50 values were calculated therefrom.

WEE1 = target: T1, WEE1 (Homo sapiens, UniProt P30291+Q96SW2); test: Western blot degradation of WEE1 in hPBMCs (24 h); assay type: cell-based; conditions: compounds at 50 nM and 500 nM
T1 construct: The supernatant was aspirated as the extracted total cell protein; endogenous in cells; host or cells: human peripheral blood mononuclear cells (hPBMCs)
T1 sequence (P30291 whole entry): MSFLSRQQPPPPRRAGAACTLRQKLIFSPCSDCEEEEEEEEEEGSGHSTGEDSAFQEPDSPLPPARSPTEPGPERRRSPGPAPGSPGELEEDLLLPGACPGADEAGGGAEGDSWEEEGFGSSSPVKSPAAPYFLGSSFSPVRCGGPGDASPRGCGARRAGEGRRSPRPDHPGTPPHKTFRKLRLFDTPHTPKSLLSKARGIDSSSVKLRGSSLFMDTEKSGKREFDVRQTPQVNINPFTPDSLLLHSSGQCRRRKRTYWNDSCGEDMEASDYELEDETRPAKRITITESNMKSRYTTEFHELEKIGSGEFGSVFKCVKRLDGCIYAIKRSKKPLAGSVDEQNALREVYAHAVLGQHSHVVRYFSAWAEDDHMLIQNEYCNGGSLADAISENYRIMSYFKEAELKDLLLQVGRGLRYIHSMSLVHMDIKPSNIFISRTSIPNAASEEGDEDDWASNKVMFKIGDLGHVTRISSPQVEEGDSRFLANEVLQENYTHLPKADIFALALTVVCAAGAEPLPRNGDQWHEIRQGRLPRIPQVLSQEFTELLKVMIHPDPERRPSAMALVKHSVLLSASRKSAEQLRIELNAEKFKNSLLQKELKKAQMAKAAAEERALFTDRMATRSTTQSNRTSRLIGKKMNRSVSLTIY
T1 sequence (Q96SW2 whole entry): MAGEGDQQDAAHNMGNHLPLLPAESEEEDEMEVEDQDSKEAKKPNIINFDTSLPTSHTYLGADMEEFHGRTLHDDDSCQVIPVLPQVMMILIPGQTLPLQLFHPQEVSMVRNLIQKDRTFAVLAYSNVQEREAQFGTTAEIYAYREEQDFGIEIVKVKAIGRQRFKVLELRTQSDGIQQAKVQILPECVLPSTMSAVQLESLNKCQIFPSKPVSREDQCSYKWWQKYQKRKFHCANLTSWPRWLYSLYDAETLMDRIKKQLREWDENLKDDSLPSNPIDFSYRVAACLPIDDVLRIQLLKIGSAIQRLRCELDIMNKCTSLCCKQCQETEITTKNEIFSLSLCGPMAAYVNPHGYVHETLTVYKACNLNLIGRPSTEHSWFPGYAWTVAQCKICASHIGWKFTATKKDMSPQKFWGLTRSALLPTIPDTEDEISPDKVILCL
T1 sequence (Q16531 whole entry partner): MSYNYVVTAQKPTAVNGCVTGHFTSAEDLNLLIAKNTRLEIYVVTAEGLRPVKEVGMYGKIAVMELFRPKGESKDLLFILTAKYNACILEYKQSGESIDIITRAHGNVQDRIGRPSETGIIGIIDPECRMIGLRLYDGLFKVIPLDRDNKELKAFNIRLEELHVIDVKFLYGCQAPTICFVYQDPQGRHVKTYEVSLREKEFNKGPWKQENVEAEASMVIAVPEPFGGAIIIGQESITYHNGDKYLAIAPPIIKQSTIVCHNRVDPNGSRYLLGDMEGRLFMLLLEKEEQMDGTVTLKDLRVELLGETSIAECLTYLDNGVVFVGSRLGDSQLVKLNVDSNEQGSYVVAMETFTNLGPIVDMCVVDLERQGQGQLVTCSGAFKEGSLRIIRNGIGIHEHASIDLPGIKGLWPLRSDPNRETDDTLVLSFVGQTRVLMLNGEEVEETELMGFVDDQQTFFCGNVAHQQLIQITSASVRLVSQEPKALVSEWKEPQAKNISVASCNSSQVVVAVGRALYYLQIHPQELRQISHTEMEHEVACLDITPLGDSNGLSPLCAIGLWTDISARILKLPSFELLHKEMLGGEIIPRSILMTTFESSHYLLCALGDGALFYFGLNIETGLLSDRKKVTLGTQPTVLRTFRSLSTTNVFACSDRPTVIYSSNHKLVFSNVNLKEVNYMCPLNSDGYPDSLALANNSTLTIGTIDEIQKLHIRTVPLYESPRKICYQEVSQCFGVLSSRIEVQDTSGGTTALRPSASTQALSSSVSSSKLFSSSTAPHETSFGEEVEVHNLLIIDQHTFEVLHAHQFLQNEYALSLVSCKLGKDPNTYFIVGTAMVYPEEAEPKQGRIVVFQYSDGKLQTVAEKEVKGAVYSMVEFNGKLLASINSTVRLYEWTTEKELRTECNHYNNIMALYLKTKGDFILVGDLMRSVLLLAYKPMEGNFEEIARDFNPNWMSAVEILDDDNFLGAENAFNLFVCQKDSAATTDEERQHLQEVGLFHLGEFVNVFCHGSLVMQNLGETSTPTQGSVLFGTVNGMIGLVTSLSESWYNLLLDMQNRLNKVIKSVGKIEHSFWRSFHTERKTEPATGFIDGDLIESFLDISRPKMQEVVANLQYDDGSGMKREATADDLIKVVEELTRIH
In short: (§1)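 Immunoblot densitometry quantifies target loss in hPBMCs after a 24 h compound exposure (50 nM, 500 nM). Percent remaining is normalised band intensity; DC50 is the concentration giving half the DMSO-control band grayscale.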

IKZF1 = target: T2, IKZF1 (Homo sapiens, UniProt Q13422+Q96SW2); test: Western blot degradation of IKZF1 in hPBMCs (24 h); assay type: cell-based; conditions: compounds at 50 nM and 500 nM
T2 construct: The supernatant was aspirated as the extracted total cell protein; endogenous in cells; host or cells: human peripheral blood mononuclear cells (hPBMCs)
T2 sequence (Q13422 whole entry): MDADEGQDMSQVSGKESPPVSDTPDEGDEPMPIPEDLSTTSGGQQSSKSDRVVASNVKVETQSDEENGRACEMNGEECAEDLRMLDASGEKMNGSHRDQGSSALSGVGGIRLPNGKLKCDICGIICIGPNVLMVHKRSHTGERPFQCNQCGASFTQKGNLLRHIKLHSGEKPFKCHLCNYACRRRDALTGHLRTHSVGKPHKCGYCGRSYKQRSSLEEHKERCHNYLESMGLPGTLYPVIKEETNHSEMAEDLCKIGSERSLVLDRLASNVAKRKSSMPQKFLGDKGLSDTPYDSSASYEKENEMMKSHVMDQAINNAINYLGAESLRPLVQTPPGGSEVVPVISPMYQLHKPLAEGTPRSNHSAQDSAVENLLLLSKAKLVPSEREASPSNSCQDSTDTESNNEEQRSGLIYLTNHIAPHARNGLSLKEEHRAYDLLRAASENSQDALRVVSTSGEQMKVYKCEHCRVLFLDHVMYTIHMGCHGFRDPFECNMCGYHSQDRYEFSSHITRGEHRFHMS
T2 sequence (Q96SW2 whole entry): as the sequence (Q96SW2 whole entry) above
T2 sequence (Q16531 whole entry partner): as the sequence (Q16531 whole entry partner) above
In short: as §1

IKZF2 = target: T3, IKZF2 (Homo sapiens, UniProt Q96SW2+Q9UKS7); test: Western blot degradation of IKZF2 in hPBMCs (24 h); assay type: cell-based; conditions: compounds at 50 nM and 500 nM
T3 construct: The supernatant was aspirated as the extracted total cell protein; endogenous in cells; host or cells: human peripheral blood mononuclear cells (hPBMCs)
In short: as §1

IKZF3 = target: T4, IKZF3 (Homo sapiens, UniProt Q96SW2+Q9UKT9); test: Western blot degradation of IKZF3 in hPBMCs (24 h); assay type: cell-based; conditions: compounds at 50 nM and 500 nM
T4 construct: The supernatant was aspirated as the extracted total cell protein; endogenous in cells; host or cells: human peripheral blood mononuclear cells (hPBMCs)
T4 sequence (Q9UKT9 whole entry): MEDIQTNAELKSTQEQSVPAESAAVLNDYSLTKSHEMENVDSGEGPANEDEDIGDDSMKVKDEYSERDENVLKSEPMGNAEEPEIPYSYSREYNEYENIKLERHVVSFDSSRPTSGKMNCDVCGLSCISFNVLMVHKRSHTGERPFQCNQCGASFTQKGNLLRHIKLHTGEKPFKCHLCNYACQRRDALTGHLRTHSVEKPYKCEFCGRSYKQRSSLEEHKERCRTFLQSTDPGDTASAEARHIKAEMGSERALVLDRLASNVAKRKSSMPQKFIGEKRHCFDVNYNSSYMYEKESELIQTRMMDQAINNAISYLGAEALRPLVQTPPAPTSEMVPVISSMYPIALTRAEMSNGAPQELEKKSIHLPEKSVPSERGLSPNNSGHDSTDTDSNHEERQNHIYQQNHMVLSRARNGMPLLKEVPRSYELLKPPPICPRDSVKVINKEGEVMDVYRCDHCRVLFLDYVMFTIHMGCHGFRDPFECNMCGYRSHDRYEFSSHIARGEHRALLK
T4 sequence (Q96SW2 whole entry): as the sequence (Q96SW2 whole entry) above
T4 sequence (Q16531 whole entry partner): as the sequence (Q16531 whole entry partner) above
In short: as §1

CK1α = target: T5, CK1α (Homo sapiens, UniProt P48729+Q96SW2); test: Western blot degradation of CK1α in hPBMCs (24 h); assay type: cell-based; conditions: compounds at 50 nM and 500 nM
T5 construct: The supernatant was aspirated as the extracted total cell protein; endogenous in cells; host or cells: human peripheral blood mononuclear cells (hPBMCs)
T5 sequence (P48729 whole entry): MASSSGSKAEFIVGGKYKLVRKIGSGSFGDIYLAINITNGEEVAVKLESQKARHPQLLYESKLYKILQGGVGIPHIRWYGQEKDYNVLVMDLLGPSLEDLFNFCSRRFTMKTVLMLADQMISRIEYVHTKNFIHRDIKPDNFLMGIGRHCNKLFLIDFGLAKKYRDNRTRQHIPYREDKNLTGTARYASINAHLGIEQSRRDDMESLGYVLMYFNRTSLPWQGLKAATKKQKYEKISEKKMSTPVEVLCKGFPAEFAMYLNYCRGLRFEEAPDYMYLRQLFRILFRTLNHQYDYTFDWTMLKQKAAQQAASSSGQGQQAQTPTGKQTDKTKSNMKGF
T5 sequence (Q96SW2 whole entry): as the sequence (Q96SW2 whole entry) above
T5 sequence (Q16531 whole entry partner): as the sequence (Q16531 whole entry partner) above
In short: as §1

GSPT1 = target: T6, GSPT1 (Homo sapiens, UniProt P15170+Q96SW2); test: Western blot degradation of GSPT1 in hPBMCs (24 h); assay type: cell-based; conditions: compounds at 50 nM and 500 nM
T6 construct: The supernatant was aspirated as the extracted total cell protein; endogenous in cells; host or cells: human peripheral blood mononuclear cells (hPBMCs)
T6 sequence (P15170 whole entry): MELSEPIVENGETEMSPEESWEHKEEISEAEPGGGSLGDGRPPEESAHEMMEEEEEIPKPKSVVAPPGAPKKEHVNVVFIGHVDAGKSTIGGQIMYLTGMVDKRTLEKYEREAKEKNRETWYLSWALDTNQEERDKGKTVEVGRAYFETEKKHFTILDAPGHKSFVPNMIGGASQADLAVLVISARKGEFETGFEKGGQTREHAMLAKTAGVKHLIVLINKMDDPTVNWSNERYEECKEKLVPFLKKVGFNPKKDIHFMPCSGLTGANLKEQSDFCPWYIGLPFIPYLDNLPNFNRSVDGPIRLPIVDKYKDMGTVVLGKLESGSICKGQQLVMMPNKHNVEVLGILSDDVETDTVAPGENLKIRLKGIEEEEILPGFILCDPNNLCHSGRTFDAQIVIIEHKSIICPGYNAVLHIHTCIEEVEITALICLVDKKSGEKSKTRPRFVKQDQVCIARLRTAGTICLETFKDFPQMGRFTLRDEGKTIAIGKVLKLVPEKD
T6 sequence (Q96SW2 whole entry): as the sequence (Q96SW2 whole entry) above
T6 sequence (Q16531 whole entry partner): as the sequence (Q16531 whole entry partner) above
In short: as §1

Row | Compound | IC50 (MM.1S cells) [nM] | WEE1 substrate protein remaining % (WEE1) | IKZF1 substrate protein remaining % (IKZF1) | IKZF2 substrate protein remaining % (IKZF2) | IKZF3 substrate protein remaining % (IKZF3) | CK1α substrate protein remaining % (CK1α) | GSPT1 substrate protein remaining % (GSPT1)
1 | O=C1CCN(N2Cc3cc(CN4CCN(c5cccc(Cl)n5)CC4)ccc3C2=O)C(=O)N1 [GT-05126, 1-(5-((4-(6-chloropyridin-2-yl)piperazin-1-yl)methyl)-1-oxoisoindolin-2-yl)dihydropyrimidine-2,4(1H,3H)-dione] | 300 to 500 | A (0% ≤ substrate protein remaining % ≤80%) | A (0% ≤ substrate protein remaining % ≤80%) | A (0% ≤ substrate protein remaining % ≤80%) | A (0% ≤ substrate protein remaining % ≤80%) | A (0% ≤ substrate protein remaining % ≤80%) | A (0% ≤ substrate protein remaining % ≤80%)
2 | O=C1CCN(N2Cc3cc(CN4CCN(c5ccc(Cl)cn5)CC4)ccc3C2=O)C(=O)N1 [GT-05127, 1-(5-((4-(5-chloropyridin-2-yl)piperazin-1-yl)methyl)-1-oxoisoindolin-2-yl)dihydropyrimidine-2,4(1H,3H)-dione] | 500 to 1000 | A (0% ≤ substrate protein remaining % ≤80%) | A (0% ≤ substrate protein remaining % ≤80%) | B (80%< substrate protein remaining % ≤100%) | A (0% ≤ substrate protein remaining % ≤80%) | A (0% ≤ substrate protein remaining % ≤80%) | A (0% ≤ substrate protein remaining % ≤80%)
3 | O=C1CCN(N2Cc3cc(CN4C[C@@H]5C[C@H]4CN5c4cccc(Cl)c4Cl)ccc3C2=O)C(=O)N1 [GT-05163, 1-(5-(((1S,4S)-5-(2,3-dichlorophenyl)-2,5-diazabicyclo[2.2.1]heptan-2-yl)methyl)-1-oxoisoindolin-2-yl)dihydropyrimidine-2,4(1H,3H)-dione] | 500 to 1000 | B (80%< substrate protein remaining % ≤100%) | A (0% ≤ substrate protein remaining % ≤80%) | A (0% ≤ substrate protein remaining % ≤80%) | A (0% ≤ substrate protein remaining % ≤80%) | B (80%< substrate protein remaining % ≤100%) | A (0% ≤ substrate protein remaining % ≤80%)
4 | O=C1CCN(N2Cc3cc(CN4CCC(c5c[nH]c6cc(F)ccc56)CC4)ccc3C2=O)C(=O)N1 [GT-05164, 1-(5-((4-(6-fluoro-1H-indol-3-yl)piperidin-1-yl)methyl)-1-oxoisoindolin-2-yl)dihydropyrimidine-2,4(1H,3H)-dione] | 100 to 300 | B (80%< substrate protein remaining % ≤100%) | A (0% ≤ substrate protein remaining % ≤80%) | A (0% ≤ substrate protein remaining % ≤80%) | B (80%< substrate protein remaining % ≤100%) | B (80%< substrate protein remaining % ≤100%) | A (0% ≤ substrate protein remaining % ≤80%)
5 | O=C1CCN(N2Cc3cc(CN4CCC(N5CCc6cc(F)ccc65)CC4)ccc3C2=O)C(=O)N1 [GT-05165, 1-(5-((4-(5-fluoroindolin-1-yl)piperidin-1-yl)methyl)-1-oxoisoindolin-2-yl)dihydropyrimidine-2,4(1H,3H)-dione] | 500 to 1000 | B (80%< substrate protein remaining % ≤100%) | B (80%< substrate protein remaining % ≤100%) | A (0% ≤ substrate protein remaining % ≤80%) | B (80%< substrate protein remaining % ≤100%) | B (80%< substrate protein remaining % ≤100%) | A (0% ≤ substrate protein remaining % ≤80%)
6 | O=C1CCN(N2Cc3cc(CN4CC=C(c5ccnc6cc(F)ccc56)CC4)ccc3C2=O)C(=O)N1 [GT-05166, 1-(5-((4-(7-fluoroquinolin-4-yl)-3,6-dihydropyridin-1(2H)-yl)methyl)-1-oxoisoindolin-2-yl)dihydropyrimidine-2,4(1H,3H)-dione] | 100 to 300 | A (0% ≤ substrate protein remaining % ≤80%) | A (0% ≤ substrate protein remaining % ≤80%) | A (0% ≤ substrate protein remaining % ≤80%) | A (0% ≤ substrate protein remaining % ≤80%) | B (80%< substrate protein remaining % ≤100%) | A (0% ≤ substrate protein remaining % ≤80%)
7 | Cn1cc(C2=CCN(Cc3ccc4c(c3)CN(N3CCC(=O)NC3=O)C4=O)CC2)c2ccc(F)cc21 [GT-05167, 1-(5-((4-(6-fluoro-1-methyl-1H-indol-3-yl)-3,6-dihydropyridin-1 (2H)-yl)methyl)-1-oxoisoindolin-2-yl)dihydropyrimidine-2,4(1H,3H)-dione] | 10 to 50 | A (0% ≤ substrate protein remaining % ≤80%) | A (0% ≤ substrate protein remaining % ≤80%) | A (0% ≤ substrate protein remaining % ≤80%) | A (0% ≤ substrate protein remaining % ≤80%) | B (80%< substrate protein remaining % ≤100%) | A (0% ≤ substrate protein remaining % ≤80%)
8 | O=C1CCN(N2Cc3cc(CN4CC(=C5CCOc6cc(F)ccc65)C4)ccc3C2=O)C(=O)N1 [GT-05168, 1-(5-((3-(7-fluorochroman-4-ylidene)azetidin-1-yl)methyl)-1-oxoisoindolin-2-yl)dihydropyrimidine-2,4(1H,3H)-dione] | 100 to 300 | B (80%< substrate protein remaining % ≤100%) | B (80%< substrate protein remaining % ≤100%) | B (80%< substrate protein remaining % ≤100%) | A (0% ≤ substrate protein remaining % ≤80%) | B (80%< substrate protein remaining % ≤100%) | A (0% ≤ substrate protein remaining % ≤80%)
9 | O=C1CCN(N2Cc3cc(CN4CC(N5CCc6cc(F)ccc65)C4)ccc3C2=O)C(=O)N1 [GT-05169, 1-(5-((3-(5-fluoroindolin-1-yl)azetidin-1-yl)methyl)-1-oxoisoindolin-2-yl)dihydropyrimidine-2,4(1H,3H)-dione] | 100 to 300 | B (80%< substrate protein remaining % ≤100%) | B (80%< substrate protein remaining % ≤100%) | A (0% ≤ substrate protein remaining % ≤80%) | A (0% ≤ substrate protein remaining % ≤80%) | B (80%< substrate protein remaining % ≤100%) | A (0% ≤ substrate protein remaining % ≤80%)
10 | O=C1CCN(N2Cc3cc(CN4CC=C(c5nccc(Cl)c5Cl)CC4)ccc3C2=O)C(=O)N1 [GT-06392, 1-(5-((3,4-dichloro-3′,6′-dihydro-[2,4′-bipyridin]-1′ (2′H)-yl)methyl)-1-oxoisoindolin-2-yl)dihydropyrimidine-2,4(1H,3H)-dione] | 300 to 500 | A (0% ≤ substrate protein remaining % ≤80%) | B (80%< substrate protein remaining % ≤100%) | A (0% ≤ substrate protein remaining % ≤80%) | A (0% ≤ substrate protein remaining % ≤80%) | A (0% ≤ substrate protein remaining % ≤80%) | A (0% ≤ substrate protein remaining % ≤80%)
